Assay results as given in US10597388B2, “Pyridazinone herbicides” (FMC CORPORATION, priority 2014, dated 2020).

Key:
Assay in all cases: Test A greenhouse herbicide test, pre- and postemergence
Format in all cases: in vivo
[1] = system: barnyardgrass (Echinochloa crus-galli)
Outline: (§1)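 Seeds sown in loam–sand blend got a preemergence directed soil spray of compound in non-phytotoxic solvent with surfactant. Postemergence treatment was given at 2–10 cm, one- to two-leaf stage. After ~10 d in greenhouse, injury was rated visually vs untreated controls, 0 (no effect) to 100 (complete control).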

corn (Zea mays) = details: Postemergence; for Corn plant response rating: 0 to 100 scale, 0 is no effect, 100 is complete control
Outline: as §1

[2] = system: foxtail, giant (giant foxtail, Setaria faberii)
Outline: as §1

kochia (Kochia scoparia) = system: kochia (Kochia scoparia)
Outline: as §1

[3] = system: pigweed (Amaranthus retroflexus)
Outline: as §1

[4] = system: ragweed (common ragweed, Ambrosia elatior)
Outline: as §1

[5] = system: ryegrass, Italian (Italian ryegrass, Lolium multiflorum)
Outline: as §1

[6] = system: wheat (Triticum aestivum); details: Postemergence; for Wheat plant response rating: 0 to 100 scale, 0 is no effect, 100 is complete control
Outline: as §1

[7] = Postemergence, 1000 g ai/ha, 0 to 100 scale, 0 is no effect, 100 is complete control
[8] = Preemergence, 1000 g ai/ha, 0 to 100 scale, 0 no effect, 100 complete control
[9] = Postemergence, 125 g ai/ha, visual rating after approx. 10 d, 0 to 100 scale (0 no effect, 100 complete control)
[10] = Postemergence, 500 g ai/ha, 0 to 100 scale, 0 is no effect, 100 is complete control
[11] = Preemergence, 125 g ai/ha, 0 to 100 scale where 0 is no effect and 100 is complete control
[12] = Preemergence, 500 g ai/ha, 0 to 100 scale, 0 no effect, 100 complete control
[13] = Postemergence, 125 g ai/ha, 0 to 100 scale where 0 is no effect and 100 is complete control
[14] = 125 g ai/ha, 0 to 100 scale where 0 is no effect and 100 is complete control
[15] = Preemergence, 500 g ai/ha, 0 to 100 scale where 0 is no effect and 100 is complete control
[16] = 500 g ai/ha, visual rating after approx. 10 d, 0 to 100 scale (0 no effect, 100 complete control)
[17] = Postemergence, 500 g ai/ha, visual rating after approx. 10 d, 0 to 100 scale (0 no effect, 100 complete control)

Row | Compound | Barnyardgrass plant response rating [1, 10] | Barnyardgrass plant response rating [1, 11] | Foxtail, Giant plant response rating [2, 11] | Kochia plant response rating (kochia (Kochia scoparia); [11]) | Pigweed plant response rating [3, 11] | Ragweed plant response rating [4, 11] | Plant response rating, Ryegrass, Italian [5, 13] | Ryegrass, Italian plant response rating [5, 11] | Plant response rating, Wheat [6, 14] | Plant response rating, Barnyardgrass [1, 13] | Plant response rating, Corn (corn (Zea mays); [14]) | Plant response rating, Foxtail, Giant [2, 13] | Plant response rating, Foxtail, Giant [2, 15] | Plant response rating, Kochia (kochia (Kochia scoparia); [13]) | Plant response rating, Kochia (kochia (Kochia scoparia); [15]) | Plant response rating, Pigweed [3, 13] | Plant response rating, Pigweed [3, 15] | Plant response rating, Ragweed [4, 13] | Plant response rating, Ragweed [4, 15] | Plant response rating, Ryegrass, Italian [5, 15] | further results
1 | CCc1ccc2ccccc2c1-c1c(O)c(C)nn(C)c1=O [Compound 32] |  |  |  |  |  |  |  |  |  |  |  |  |  |  |  |  |  |  |  |  | Barnyardgrass plant response rating [1, 7]: 90; Plant response rating, Barnyardgrass [1, 8]: 100; Corn plant response rating (corn (Zea mays); 1000 g ai/ha): 50; Foxtail, Giant plant response rating [2, 7]: 90; Plant response rating, Foxtail, Giant [2, 8]: 100; Kochia plant response rating (kochia (Kochia scoparia); [7]): 100; Plant response rating, Kochia (kochia (Kochia scoparia); [8]): 100; Pigweed plant response rating [3, 7]: 100; Plant response rating, Pigweed [3, 8]: 100; Ragweed plant response rating [4, 7]: 100; Plant response rating, Ragweed [4, 8]: 90; Ryegrass, Italian plant response rating [5, 7]: 100; Plant response rating, Ryegrass, Italian [5, 8]: 100; Wheat plant response rating ([6]; 1000 g ai/ha): 100
2 | Cc1nn(C)c(=O)c(-c2c(C)sc3c(C)cc(Cl)cc23)c1O [Compound 35] | 90 | 60 | 90 | 40 | 60 | 70 | 80 | 90 | 20 |  |  |  |  |  |  |  |  |  |  |  | Plant response rating, Barnyardgrass [1, 9]: 50; Plant response rating, Barnyardgrass [1, 12]: 90; Plant response rating, Corn (corn (Zea mays); 125 g ai/ha, visual rating after approx. 10 d, 0 to 100 scale (0 no effect, 100 complete control)): 0; Corn plant response rating (corn (Zea mays); 500 g ai/ha): 30; Plant response rating, Foxtail, Giant [2, 9]: 90; Foxtail, Giant plant response rating [2, 10]: 90; Plant response rating, Foxtail, Giant [2, 12]: 100; Plant response rating, Kochia (kochia (Kochia scoparia); [9]): 80; Kochia plant response rating (kochia (Kochia scoparia); [10]): 100; Plant response rating, Kochia (kochia (Kochia scoparia); [12]): 70; Plant response rating, Pigweed [3, 9]: 80; Pigweed plant response rating [3, 10]: 90; Plant response rating, Pigweed [3, 12]: 90; Plant response rating, Ragweed [4, 9]: 50; Ragweed plant response rating [4, 10]: 80; Plant response rating, Ragweed [4, 12]: 80; Ryegrass, Italian plant response rating [5, 10]: 100; Plant response rating, Ryegrass, Italian [5, 12]: 90; Wheat plant response rating ([6]; 500 g ai/ha): 40
3 | CCC(=O)Oc1c(C)nn(C)c(=O)c1-c1c(C)ccc2ccccc12 [Compound 78] | 30 | 0 | 20 | 20 | 60 | 60 | 80 | 100 | 0 | 20 | 0 | 20 | 60 | 50 | 100 | 60 | 100 | 40 | 90 | 100 | Plant response rating, Barnyardgrass [1, 12]: 70; Corn plant response rating (corn (Zea mays); 500 g ai/ha): 0; Foxtail, Giant plant response rating [2, 10]: 70; Kochia plant response rating (kochia (Kochia scoparia); [10]): 90; Pigweed plant response rating [3, 10]: 90; Ragweed plant response rating [4, 10]: 80; Ryegrass, Italian plant response rating [5, 10]: 100; Wheat plant response rating ([6]; 500 g ai/ha): 60
4 | Cc1sc2ccccc2c1-c1c(O)c(Cl)nn(C)c1=O [Compound 89] | 80 | 50 | 50 | 70 | 100 | 80 | 80 | 80 | 0 | 40 | 0 | 70 | 80 | 80 | 90 | 80 | 100 | 80 | 90 | 90 | Plant response rating, Barnyardgrass [1, 15]: 60; Corn plant response rating (corn (Zea mays); 500 g ai/ha): 0; Foxtail, Giant plant response rating [2, 10]: 80; Kochia plant response rating (kochia (Kochia scoparia); [10]): 90; Pigweed plant response rating [3, 10]: 90; Ragweed plant response rating [4, 10]: 90; Ryegrass, Italian plant response rating [5, 10]: 90; Wheat plant response rating ([6]; 500 g ai/ha): 0
5 | COC(=O)Oc1cnn(C)c(=O)c1-c1c(C)sc2ccccc12 [Compound 97] | 90 | 20 | 60 | 80 | 100 | 90 | 100 | 100 | 20 | 30 | 10 | 80 | 100 | 90 | 100 | 90 | 100 | 90 | 100 | 100 | Plant response rating, Barnyardgrass [1, 15]: 100; Plant response rating, Corn (corn (Zea mays); [16]): 70; Plant response rating, Foxtail, Giant [2, 17]: 100; Plant response rating, Kochia (kochia (Kochia scoparia); [17]): 100; Plant response rating, Pigweed [3, 17]: 100; Plant response rating, Ragweed [4, 17]: 100; Plant response rating, Ryegrass, Italian [5, 17]: 100; Plant response rating, Wheat [6, 16]: 80
6 | Cc1ccc2ccccc2c1-c1c(O)c(C(F)(F)F)nn(C)c1=O [Compound 102] | 90 | 40 | 70 | 10 | 80 | 90 | 20 | 60 | 20 | 40 | 20 | 70 | 90 | 20 | 30 | 90 | 100 | 100 | 90 | 60 | Plant response rating, Barnyardgrass [1, 15]: 60; Plant response rating, Corn (corn (Zea mays); [16]): 20; Plant response rating, Foxtail, Giant [2, 17]: 90; Plant response rating, Kochia (kochia (Kochia scoparia); [17]): 40; Plant response rating, Pigweed [3, 17]: 90; Plant response rating, Ragweed [4, 17]: 100; Plant response rating, Ryegrass, Italian [5, 17]: 80; Plant response rating, Wheat [6, 16]: 20
7 | CCCC(=O)Oc1c(C)nn(C)c(=O)c1-c1c(CC)sc2ccc(C)cc12 [Compound 107] | 100 | 70 | 70 | 20 | 100 | 90 | 60 | 80 | 30 | 60 | 0 | 70 | 100 | 80 | 90 | 90 | 100 | 90 | 100 | 100 | Plant response rating, Barnyardgrass [1, 15]: 100; Plant response rating, Corn (corn (Zea mays); [16]): 30; Plant response rating, Foxtail, Giant [2, 17]: 90; Plant response rating, Kochia (kochia (Kochia scoparia); [17]): 90; Plant response rating, Pigweed [3, 17]: 90; Plant response rating, Ragweed [4, 17]: 90; Plant response rating, Ryegrass, Italian [5, 17]: 90; Plant response rating, Wheat [6, 16]: 20
8 | CC(=O)Oc1c(C)nn(C)c(=O)c1-c1c(C)sc2ccc(Cl)cc12 [Compound 108] | 90 | 20 | 90 | 90 | 100 | 90 | 100 | 100 | 0 | 30 | 0 | 60 | 100 | 90 | 100 | 90 | 100 | 70 | 100 | 100 | Plant response rating, Barnyardgrass [1, 15]: 100; Plant response rating, Corn (corn (Zea mays); [16]): 0; Plant response rating, Foxtail, Giant [2, 17]: 90; Plant response rating, Kochia (kochia (Kochia scoparia); [17]): 100; Plant response rating, Pigweed [3, 17]: 100; Plant response rating, Ragweed [4, 17]: 100; Plant response rating, Ryegrass, Italian [5, 17]: 100; Plant response rating, Wheat [6, 16]: 20
